Test results as given in ChEMBL document CHEMBL1128327, “L-O-(2-malonyl)tyrosine: a new phosphotyrosyl mimetic for the preparation of Src homology 2 domain inhibitory peptides” (J Med Chem, 1995).
Square brackets hold non-standard residues; d marks the D form. Peptide text beside a SMILES is read from it. * marks the point of attachment. pY = N[C@@H](Cc1ccc(OP(=O)(O)O)cc1)C(=O)O; X1 = O=C(O)C(C(=O)O)*

Assays:
Type in all cases: functional
[1] = target: Proto-oncogene tyrosine-protein kinase Src (Homo sapiens, UniProt P12931); assay: Inhibitory activity against Src protein tyrosine kinase SH2 domain
Chain of Proto-oncogene tyrosine-protein kinase Src (P12931 2-536 limits assumed): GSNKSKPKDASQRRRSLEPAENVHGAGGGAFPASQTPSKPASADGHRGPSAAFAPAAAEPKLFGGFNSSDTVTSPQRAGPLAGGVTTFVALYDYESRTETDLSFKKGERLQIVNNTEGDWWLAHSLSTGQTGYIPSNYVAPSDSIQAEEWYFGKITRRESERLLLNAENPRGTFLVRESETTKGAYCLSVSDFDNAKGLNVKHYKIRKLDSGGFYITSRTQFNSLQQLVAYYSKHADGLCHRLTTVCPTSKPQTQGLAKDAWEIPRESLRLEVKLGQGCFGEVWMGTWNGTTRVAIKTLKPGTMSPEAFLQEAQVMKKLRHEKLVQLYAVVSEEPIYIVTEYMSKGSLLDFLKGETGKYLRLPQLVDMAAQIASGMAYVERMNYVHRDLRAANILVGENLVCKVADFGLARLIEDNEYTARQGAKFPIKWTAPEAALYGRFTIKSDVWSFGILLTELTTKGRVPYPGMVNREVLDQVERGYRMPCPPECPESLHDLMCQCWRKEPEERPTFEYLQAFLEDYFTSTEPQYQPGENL

[2] = Inhibitory activity against SH2 domain of PI3-kinase p85
[3] = target: T1, Tyrosine-protein phosphatase non-receptor type 11 (Homo sapiens, UniProt Q06124); assay: Inhibitory activity against SH2 domain of SH-PTP2 (N-terminal) binding
T1 sequence (Q06124 whole entry): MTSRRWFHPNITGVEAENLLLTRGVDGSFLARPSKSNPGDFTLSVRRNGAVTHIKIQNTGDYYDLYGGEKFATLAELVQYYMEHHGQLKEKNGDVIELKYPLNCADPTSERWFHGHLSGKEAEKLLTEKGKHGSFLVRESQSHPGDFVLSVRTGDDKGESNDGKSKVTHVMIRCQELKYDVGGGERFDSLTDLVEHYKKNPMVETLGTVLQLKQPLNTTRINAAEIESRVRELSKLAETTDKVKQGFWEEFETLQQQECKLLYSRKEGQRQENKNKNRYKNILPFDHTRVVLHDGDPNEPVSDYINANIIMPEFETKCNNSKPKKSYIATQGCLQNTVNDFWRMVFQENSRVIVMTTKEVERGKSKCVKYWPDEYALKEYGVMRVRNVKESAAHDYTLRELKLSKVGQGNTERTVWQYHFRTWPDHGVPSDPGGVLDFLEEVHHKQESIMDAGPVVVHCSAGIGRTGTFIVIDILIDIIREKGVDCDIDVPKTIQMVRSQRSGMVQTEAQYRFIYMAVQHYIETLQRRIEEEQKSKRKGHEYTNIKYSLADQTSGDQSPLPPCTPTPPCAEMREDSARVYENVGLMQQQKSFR

[4] = target: Growth factor receptor-bound protein 2 (Homo sapiens, UniProt P62993); assay: Inhibition of binding to Growth factor receptor bound protein 2 SH2 domain
Chain of Growth factor receptor-bound protein 2 (P62993 whole entry, the tested form may be a part): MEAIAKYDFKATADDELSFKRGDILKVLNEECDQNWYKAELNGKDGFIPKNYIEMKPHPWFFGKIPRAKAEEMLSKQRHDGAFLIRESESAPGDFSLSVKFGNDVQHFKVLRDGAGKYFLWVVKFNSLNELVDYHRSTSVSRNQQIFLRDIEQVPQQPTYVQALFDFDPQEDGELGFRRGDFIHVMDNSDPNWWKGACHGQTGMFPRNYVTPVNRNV

Compound `CC[C@H](C)[C@H](NC(=O)[C@H](CCC(=O)O)NC(=O)[C@H](CCC(=O)O)NC(=O)[C@H](Cc1ccc(OP(=O)(O)O)cc1)NC(=O)[C@H](CCC(N)=O)NC(C)=O)C(=O)N1CCC[C@H]1C(N)=O` has an IC50 [1] of 3.2 µM.

For `CC[C@H](C)[C@H](NC(=O)[C@H](CCC(=O)O)NC(=O)[C@H](CCC(=O)O)NC(=O)[C@H](Cc1ccc(OC(C(=O)O)C(=O)O)cc1)NC(=O)[C@H](CCC(N)=O)NC(C)=O)C(=O)N1CCC[C@H]1C(N)=O`, the IC50 [1] was 25 µM.

In the case of `CC[C@H](C)[C@H](NC(=O)[C@H](CCC(=O)O)NC(=O)[C@H](Cc1ccc(OC(C(=O)O)C(=O)O)cc1)NC(=O)[C@H](Cc1ccc(OC(C(=O)O)C(=O)O)cc1)NC(=O)[C@H](CCC(N)=O)NC(C)=O)C(=O)N1CCC[C@H]1C(N)=O`, the IC50 [1] is reported as 22.8 µM.

With `CSCC[C@H](NC(=O)[C@@H]1CCCN1C(=O)[C@@H](NC(=O)[C@H](Cc1ccc(OC(C(=O)O)C(=O)O)cc1)NC(=O)[C@H](CC(=O)O)NC(C)=O)C(C)C)C(=O)N[C@@H](CC(C)C)C(N)=O` (Ac-DY(X1)VPML-NH2) the IC50 [2] was 14.2 µM.

For `CSCC[C@H](NC(=O)[C@@H]1CCCN1C(=O)[C@@H](NC(=O)[C@H](Cc1ccc(OP(=O)(O)O)cc1)NC(=O)[C@H](CC(=O)O)NC(C)=O)C(C)C)C(=O)N[C@@H](CC(C)C)C(N)=O` (Ac-D[pY]VPML-NH2), the IC50 [2] was 0.15 µM.

`CC[C@H](C)[C@H](NC(=O)[C@H](Cc1ccc(OC(C(=O)O)C(=O)O)cc1)NC(=O)[C@H](CC(N)=O)NC(=O)[C@H](CC(C)C)NC(C)=O)C(=O)N[C@@H](CC(=O)O)C(=O)N[C@@H](CC(C)C)C(=O)N[C@@H](CC(=O)O)C(=O)N[C@@H](CC(C)C)C(=O)N[C@H](C(N)=O)C(C)C` (Ac-LNY(X1)IDLDLV-NH2) showed an IC50 [3] of 22 µM.

With `CC[C@H](C)[C@H](NC(=O)[C@H](Cc1ccc(OP(=O)(O)O)cc1)NC(=O)[C@H](CC(N)=O)NC(=O)[C@H](CC(C)C)NC(C)=O)C(=O)N[C@@H](CC(=O)O)C(=O)N[C@@H](CC(C)C)C(=O)N[C@@H](CC(=O)O)C(=O)N[C@@H](CC(C)C)C(=O)N[C@H](C(N)=O)C(C)C` (Ac-LN[pY]IDLDLV-NH2) the IC50 [3] was 1.54 µM.

Work on `CC[C@H](C)[C@H](NC(=O)[C@H](CC(N)=O)NC(=O)[C@@H](NC(=O)[C@H](Cc1ccc(OC(C(=O)O)C(=O)O)cc1)NC(=O)[C@H](CC(N)=O)NC(C)=O)C(C)C)C(=O)N[C@@H](CCC(=O)O)C(N)=O` (Ac-NY(X1)VNIE-NH2) yielded an IC50 [4] of 120 µM.

For `CC[C@H](C)[C@H](NC(=O)[C@H](CC(N)=O)NC(=O)[C@@H](NC(=O)[C@H](Cc1ccc(OP(=O)(O)O)cc1)NC(=O)[C@H](CC(N)=O)NC(C)=O)C(C)C)C(=O)N[C@@H](CCC(=O)O)C(N)=O` (Ac-N[pY]VNIE-NH2), the IC50 [4] was 0.9 µM.
